We go through three molecules from ChEMBL document CHEMBL1148392 (J Med Chem, 2004).

Bounds are passed on as bounds.

Among the targets are Carbonic anhydrase 9 (Homo sapiens, UniProt Q16790); Carbonic anhydrase 2 (Homo sapiens, UniProt P00918); Carbonic anhydrase 1 (Homo sapiens, UniProt P00915).
A further test addresses T1, Carbonic anhydrase 4 (Bos taurus, UniProt Q95323).
T1 sequence (Q95323 whole entry): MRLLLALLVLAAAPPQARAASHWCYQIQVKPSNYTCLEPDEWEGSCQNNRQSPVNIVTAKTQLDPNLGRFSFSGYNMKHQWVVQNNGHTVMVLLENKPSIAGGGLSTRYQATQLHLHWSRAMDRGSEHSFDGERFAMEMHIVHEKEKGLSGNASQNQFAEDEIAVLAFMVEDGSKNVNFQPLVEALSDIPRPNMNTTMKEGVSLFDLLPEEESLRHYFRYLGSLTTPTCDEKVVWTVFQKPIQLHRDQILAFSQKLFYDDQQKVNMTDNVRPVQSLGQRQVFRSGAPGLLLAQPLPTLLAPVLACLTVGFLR

Test [1] concerns Oryctolagus cuniculus. Nature of the test: Variation of intraocular pressure in fifth day at a dose of 30 mg/kg by systemic administration in hypertensive rabbits. It counts as functional, Eye.
For test [2], the species on record is Oryctolagus cuniculus. The following applies: dose 30 mg/kg.
Description: Variation of intraocular pressure in sixth day at a dose of 30 mg/kg by systemic administration in hypertensive rabbits
The species named for test [3] is Oryctolagus cuniculus. The note with it: dose 30 mg/kg. The source holds these as a separate data set.
Description: Variation of intraocular pressure in third day at a dose of 30 mg/kg by systemic administration in hypertensive rabbits
The species named for test [4] is Oryctolagus cuniculus. The following applies: dose 30 mg/kg. This is another data set of the same source.
Description: Variation of intraocular pressure in day one at a dose of 30 mg/kg by systemic administration in hypertensive rabbits
The species entered for test [5] is Oryctolagus cuniculus. The note with it: dose 30 mg/kg. This is another data set of the same source.
Description: Variation of intraocular pressure in fourth day at a dose of 30 mg/kg at a dose by systemic administration in hypertensive rabbits
Test [6] is filed under the species Oryctolagus cuniculus. The following applies: dose 30 mg/kg. This is another data set of the same source.
Description: Variation of intraocular pressure in second day at a dose of 30 mg/kg by systemic administration in hypertensive rabbits
Test [7] is filed under the species Oryctolagus cuniculus. The following applies: dose 30 mg/kg. This is another data set of the same source.
Description: Variation of intraocular pressure in seventh day at a dose of 30 mg/kg by systemic administration in hypertensive rabbits

Chain of Carbonic anhydrase 1 (P00915 whole entry): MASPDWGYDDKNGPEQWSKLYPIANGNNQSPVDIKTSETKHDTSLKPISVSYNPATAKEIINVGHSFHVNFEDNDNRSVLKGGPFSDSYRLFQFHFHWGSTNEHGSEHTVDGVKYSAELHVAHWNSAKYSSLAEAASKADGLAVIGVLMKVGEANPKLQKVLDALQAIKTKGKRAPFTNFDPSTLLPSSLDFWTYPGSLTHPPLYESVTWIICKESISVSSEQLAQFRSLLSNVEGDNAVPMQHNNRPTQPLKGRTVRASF
Description for Carbonic anhydrase 1: Inhibitory activity against human carbonic anhydrase I was determined
Description for Carbonic anhydrase 2: Inhibitory activity against human carbonic anhydrase II was determined
Description for Carbonic anhydrase 4: Inhibitory activity against bovine carbonic anhydrase IV was determined
Description for Carbonic anhydrase 9: Inhibitory activity against human carbonic anhydrase IX was determined

Broadly, the IC50 is the concentration needed to halve the response being measured. Lower therefore signals higher potency. In turn, `Cc1ccc(-c2cc(C(F)(F)F)nn2-c2ccc(S(N)(=O)=O)cc2)cc1` [CELECOXIB] had an IC50 against Carbonic anhydrase 9 of 0.016 µM.

`COc1ccc(-n2nc(C(F)(F)F)cc2-c2ccc(Cl)cc2)cc1` [SC-560]: the IC50 at Carbonic anhydrase 9, against Carbonic anhydrase 4, against Carbonic anhydrase 2 and on Carbonic anhydrase 1 was over 100 µM each time. The “Delta IOP” value with Oryctolagus cuniculus [1] came to 0.3 mmHg; in the test listed under Oryctolagus cuniculus [2] it was 0.41 mmHg; in the test listed under Oryctolagus cuniculus [3], 0.25 mmHg; in the test listed under Oryctolagus cuniculus [4] it was 0.23 mmHg; in the test listed under Oryctolagus cuniculus [5], 0.34 mmHg; in the test listed under Oryctolagus cuniculus [6], 0.017 mmHg. Further, the “Delta IOP” value in the test listed under Oryctolagus cuniculus [7] turned out to be 0.52 mmHg.

As for `CS(=O)(=O)c1ccc(-n2cc(-c3ccc(F)cc3)c(C(F)(F)F)n2)cc1`, the IC50 on Carbonic anhydrase 9, on Carbonic anhydrase 4, against Carbonic anhydrase 2 and on Carbonic anhydrase 1 was over 100 µM throughout. Also, the “Delta IOP” value in the test with Oryctolagus cuniculus [1] is 0.16 mmHg; in the test listed under Oryctolagus cuniculus [2], 0.34 mmHg; in the test listed under Oryctolagus cuniculus [3], 0.22 mmHg; in the test filed under Oryctolagus cuniculus [4], 0.14 mmHg; in the test listed under Oryctolagus cuniculus [5], 0.25 mmHg; in the test filed under Oryctolagus cuniculus [6], 0.31 mmHg. Moreover, the “Delta IOP” value in the test filed under Oryctolagus cuniculus [7] came to 0.16 mmHg.
